Assay results: EP0323740A2, “Linear analogs of atrial natriuretic peptides” (CALIFORNIA BIOTECHNOLOGY, INC., priority 1987, dated 1989)

Biological target: T1, ANP-receptor (Bos taurus, UniProt P10730)
T1 construct: endogenous in cells; host or cells: cultured BASM cells
T1 sequence (P10730 42-537): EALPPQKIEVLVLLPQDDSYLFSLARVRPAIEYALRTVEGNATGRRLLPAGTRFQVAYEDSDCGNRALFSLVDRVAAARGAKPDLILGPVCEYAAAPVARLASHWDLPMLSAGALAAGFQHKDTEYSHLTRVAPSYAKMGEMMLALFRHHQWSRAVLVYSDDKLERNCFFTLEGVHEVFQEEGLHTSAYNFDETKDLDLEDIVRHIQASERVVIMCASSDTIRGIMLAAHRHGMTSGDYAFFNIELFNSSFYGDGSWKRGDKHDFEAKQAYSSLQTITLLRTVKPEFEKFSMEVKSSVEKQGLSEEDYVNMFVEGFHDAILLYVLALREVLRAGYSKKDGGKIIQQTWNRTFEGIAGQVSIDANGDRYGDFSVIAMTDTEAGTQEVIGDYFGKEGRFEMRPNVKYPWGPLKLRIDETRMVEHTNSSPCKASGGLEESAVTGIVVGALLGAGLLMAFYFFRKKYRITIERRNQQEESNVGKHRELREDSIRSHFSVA
Experiment: competitive displacement receptor binding assay with (¹²⁵I)-rANP(126-150) on cultured cells
Design: species or system bovine
Settings: concentration of unlabeled peptide displacing 50% of maximal binding of 0.5 nM (¹²⁵I)-rANP(126-150); BASM cells; read-out: Ki(app)
From the text: Analogous "competitive displacement" receptor binding assays are considered commonplace in the art for examining specific ligand-receptor interactions.
Assuming these ANP analogs act at one or more ANP receptor sites, then increased receptor affinity should reflect increased biological potency.

Ki [nM]	Compound
> 500	CC[C@H](C)[C@H](NC(=O)[C@H](Cc1ccc(O)cc1)NC(=O)[C@@H](NC(=O)[C@H](CCCNC(=N)N)NC(=O)[C@@H](N)CC(=O)O)C(C)C)C(=O)N[C@@H](Cc1cnc[nH]1)C(=O)N1CCC[C@H]1C(=O)N[C@@H](Cc1ccccc1)C(=O)O [angiotensin II]
> 500	parathyroid hormone
